9 compounds from patent publication US12514251B2, “Fused heterocyclic compounds and their use as pest control agents” (priority 2020, dated 2026) can be followed below.

Usually mortality stands for the share of the test organisms that died.

Common to all, as to assay type: in vivo
The test system of test [1] is Nilaparvata lugens. The experiment in a line: Nilaparvata lugens, seedling dip method. The conditions noted are these: paddy seedling dip, third instar nymphs, 72 h after release, dead + moribund vs untreated control, read-out: percent mortality. How it is done:
The seedling dip method was used for testing, wherein the required quantity of the compound was weighed and dissolved in a tube containing solvent solution. The tube was put on a vortex at 2000 rpm for 90 min for proper mixing, then diluted with 0.01% Triton-X solution to the desired test concentration.
Paddy seedlings were dipped in the compound solution for 10 seconds, shade dried for 20 min and then the seedlings were placed in glass test tubes with the roots kept in water. 15 third instar nymphs were released into each test tube and the tubes were kept in a plant growth chamber at a temperature of 25° C. and relative humidity of 75%. Observations on dead, moribund and alive nymphs were recorded 72 h after the release. Percent mortality was calculated by combining dead and moribund nymphs and comparing the result to the one of the untreated control.

The test system of test [2] is Spodoptera litura. Description: Spodoptera litura, diet incorporation method. The conditions noted are these: third instar larvae, 96 h after release, dead + moribund vs untreated control, read-out: percent mortality. How it is done: (§1) The diet incorporation method was used, in which the required quantity of the test compound was weighed and dissolved in a tube containing solvent solution. The tube was put on a vortex at 2000 rpm for 90 min for proper mixing. Semi-synthetic diet was incorporated into this solution when the temperature was approximately 50° C. in the bioassay containers. Compound and diet were stirred thoroughly for proper mixing and allowed to cool for 30 min. The solidified diet was cut into equal pieces, and then each piece was transferred into one cell of a bio-assay tray. A single starved third instar larva was released into each of the cells of the bioassay trays and the tray was covered with the lid. The bio-assay trays were then kept under laboratory conditions at a temperature of 25° C. and a relative humidity of 70%. Observations on dead, moribund and alive larvae were recorded 96 h after the release of larvae. Percent mortality was calculated by combining dead and moribund larvae and comparing the result to the one of the untreated control.

Test [3] relates to Plutella xylostella. The experiment in a line: Plutella xylostella, leaf dip method. The conditions noted are these: foliar, cabbage leaf dip, second instar larvae, 72 h after release, dead + moribund vs untreated control, read-out: percent mortality. Put shortly:
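Cabbage leaves were dipped for 10 s in compound diluted with 0.01% Triton-X, shade dried and offered singly to second instar larvae. Trays were held at 25° C. and 70% relative humidity. Dead plus moribund larvae were scored at 72 h, and percent mortality was expressed relative to untreated control.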

In test [4] the test system is Myzus persicae. The experiment in a line: Myzus persicae, leaf dip method. The conditions noted are these: foliar, capsicum leaf dip, third instar nymphs, 72 h after release, dead + moribund vs untreated control, read-out: percent mortality. The protocol:
The leaf dip method was used for testing, wherein the required quantity of the compound was weighed and dissolved in a tube containing solvent solution. The tube was put on a vortex at 2000 rpm for 90 min for proper mixing, then diluted with 0.01% Triton-X solution to the desired test concentration. Capsicum leaves were dipped in the compound solution for 10 seconds, shade dried for 20 min and then placed, with the abaxial side of the leaf up, in single cells of a bio-assay tray containing 4 ml of a 1% agar-agar solution. Known numbers of third instar nymphs, collected in petri plates, were released into the cell with the treated leaf and the cell was covered with a perforated lid for better aeration. The trays were kept in a plant growth chamber at a temperature of 25° C. and a relative humidity of 70%. Observations on dead, moribund and alive nymphs were recorded 72 h after the release. Percent mortality was calculated by combining dead and moribund nymphs and comparing the result with the one of the untreated control.

Test [5] has as its system Bemisia tabaci. The experiment in a line: Bemisia tabaci, leaf dip method. The conditions noted are these: foliar, brinjal leaf dip, whitefly adults, 72 h after release, dead + moribund vs untreated control, read-out: percent mortality. The protocol:
The leaf dip method was used for testing, wherein the required quantity of the compound was weighed and dissolved in a tube containing solvent solution. The tube was put on a vortex at 2000 rpm for 90 min for proper mixing, then diluted with 0.01% Triton-X solution to get the desired test concentration. Brinjal leaves were dipped in the compound solution for 10 seconds; shade dried for 20 min and then placed, with the abaxial side of the leaf up, on 4 ml of a 1% agar-agar solution in respective perforated container caps. Known numbers of freshly emerged whitefly adults were collected, using a modified aspirator, and released into a perforated container in which the cap containing the treated leaf was placed. The containers were kept in a plant growth chamber at a temperature of 25° C. and relative humidity of 70%.
Observations on dead, moribund and alive adults were recorded 72 h after the release. Percent mortality was calculated by combining dead and moribund adults and comparing the result to the one of the untreated control. The compounds 55 87 and 198 were recorded ≥70 percent mortality @ 300 PPM.

In test [6] the test system is Helicoverpa armigera. Description: Helicoverpa armigera, diet incorporation method. The conditions noted are these: third instar larvae, 96 h after release, dead + moribund vs untreated control, read-out: percent mortality. How it is done:
as §1, with “covered with a lid. The” for “covered with the lid. The”, “release of the larvae. Percent” for “release of larvae. Percent”

With `CCS(=O)(=O)c1cc(-n2cnc(C)n2)cnc1-c1ncc2nc(C(F)(F)F)n(C)c2n1` [Compound 130, 2-(3-(ethylsulfonyl)-5-(3-methyl-1H-1,2,4-triazol-1-yl)pyridin-2-yl)-9-methyl-8-(trifluoromethyl)-9H-purine], the mortality at 300 ppm in test [1] is at least 70%.
As to `CCS(=O)(=O)c1ccc(N(C)C2CC2)nc1-c1ccn2nc(C(F)(F)F)cc2n1` [Compound 168, N-cyclopropyl-5-(ethylsulfonyl)-N-methyl-6-(2-(trifluoromethyl)pyrazolo[1,5-a]pyrimidin-5-yl)pyridin-2-amine], the mortality at 300 ppm in test [2], in test [1] and in test [3] was at least 70% in each case.
Take `CCS(=O)(=O)c1ccc(C)nc1-c1ccn2nc(C(F)(F)F)cc2n1` [Compound 182, 5-(3-(ethylsulfonyl)-6-methylpyridin-2-yl)-2-(trifluoromethyl)pyrazolo[1,5-a]pyrimidine]: the mortality at 300 ppm in test [4], in test [1] and in test [3] was at least 70% in each case.
`CCS(=O)(=O)c1ccc(-n2nccn2)nc1-c1cnc2cc(C(F)(F)F)nn2c1` [Compound 55, 6-(3-(ethylsulfonyl)-6-(2H-1,2,3-triazol-2-yl)pyridin-2-yl)-2-(trifluoromethyl)pyrazolo[1,5-a]pyrimidine]: the mortality at 300 ppm in test [5] was at least 70%.
Consider `CCS(=O)(=O)c1ccc(NC2CC2)nc1-c1ccn2nc(C(F)(F)F)cc2n1` [Compound 141, N-cyclopropyl-5-(ethylsulfonyl)-6-(2-(trifluoromethyl)pyrazolo[1,5-a]pyrimidin-5-yl)pyridin-2-amine], for which the mortality at 300 ppm in test [4], in test [1] and in test [3] was at least 70% in each case.
On to `CCS(=O)(=O)c1ccc(NC)nc1-c1ccn2nc(C(F)(F)F)cc2n1` [Compound 167, 5-(ethylsulfonyl)-N-methyl-6-(2-(trifluoromethyl)pyrazolo[1,5-a]pyrimidin-5-yl)pyridin-2-amine], for which the mortality at 300 ppm in test [4], in test [1] and in test [3] was at least 70% each time.
On to `CCS(=O)(=O)c1ccc(N)nc1-c1ccn2nc(C(F)(F)F)cc2n1` [Compound 174, 5-(ethylsulfonyl)-6-(2-(trifluoromethyl)pyrazolo[1,5-a]pyrimidin-5-yl)pyridin-2-amine], for which the mortality at 300 ppm in test [1] and in test [3] was at least 70% throughout.
For the compound `CCS(=O)(=O)c1ccc(-n2nccn2)nc1-c1ccn2nc(C(F)(F)F)cc2n1` [Compound 41, 5-(3-(ethylsulfonyl)-6-(2H-1,2,3-triazol-2-yl)pyridin-2-yl)-2-(trifluoromethyl)pyrazolo[1,5-a]pyrimidine], the mortality at 300 ppm in test [1], in test [3] and in test [6] was at least 70% in each case.
For the compound `CCS(=O)(=O)c1ccc(N(C)C)nc1-c1ccn2nc(C(F)(F)F)cc2n1` [Compound 166, 5-(ethylsulfonyl)-N,N-dimethyl-6-(2-(trifluoromethyl)pyrazolo[1,5-a]pyrimidin-5-yl)pyridin-2-amine], the mortality at 300 ppm in test [1], in test [3] and in test [6] was at least 70% throughout.
